The experiment concerns H9c2 cells. Nature of the experiment: Mitochondrial membrane potential, JC-1 red to green fluorescence. It is filed as cell-based, rat. The protocol:
FIGS. 3A-3H. […] FIGS. 3A-3B. […] FIG. 3A. […] FIG. 3B. […] FIGS. 3C-3D. […] FIG. 3D. […] FIGS. 3E-3F. […] FIG. 3E. Representative blots are shown. […] FIG. 3F. […] FIG. 3G. […] FIG. 3H.
The cells were then washed once with PBS, placed back in the DMEM experimental medium, and incubated with the indicated drugs for 30 min. At the end of the incubation period, nuclei of both the MitoSOX Red- and JC-1-treated cells were stained with […] 4′,6-diamidino-2-phenyl-indole (DAPI) for 3 min, washed once with PBS, and returned to the DMEM experimental medium. The cover slips were removed from the wells, mounted in the DMEM experimental medium, and red (MitoSOX Red and JC-1 aggregates), green (JC-1 monomers), and blue (DAPI) fluorescence intensity was assessed using a Keyence BZ-X700 fluorescence microscope at the following paired excitation/emission wavelengths, respectively: 560/630, 490/525, and 360/460 nm.
Increased mitochondrial O2·^− by rotenone would be expected to reduce the mitochondrial membrane potential (ΔΨm), due in part to activation of uncoupling proteins^39. […] Rotenone caused an almost complete loss of red fluorescence and a striking increase in green fluorescence in the cells, indicating a marked decrease in ΔΨm (FIGS. 3C-3D).

Regarding `C/C1=C2/[N-][C@H]([C@H](CC(N)=O)[C@@]2(C)CCC(=O)NC[C@@H](C)O)[C@]2(C)N=C(/C(C)=C3N=C(/C=C4N=C1[C@@H](CCC(N)=O)C\4(C)C)[C@@H](CCC(N)=O)[C@]\3(C)CC(N)=O)[C@@H](CCC(N)=O)[C@]2(C)CC(N)=O.[Co+3]` [cobinamide, aquohydroxo-cobinamide], the “JC-1 red to green fluorescence ratio (ΔΨm) in rotenone-treated cells” value (H9c2, 5 μM rotenone 30 min, drugs at 2.5 μM) is “restored the ratio of red to green fluorescence”. For the same molecule, the “JC-1 red to green fluorescence ratio, drug alone” value (H9c2, vehicle-treated cells without rotenone, 2.5 μM) is listed as “no change”.

The record behind these values is US20260069606A1, “Oxidative Stress and Diabetes Treatment with Cobinamide” (The Regents of the University of California, priority 2022, published 2026).
